These results are taken from patent publication US10316017B2, “COT modulators and methods of use thereof” (Gilead Sciences, Inc., priority 2015, dated 2019).

In experiment [1] the test system is TNFα production in LPS-stimulated human monocytes. Nature of the experiment: Cot Monocyte TNFα Cell Based Assay. As to conditions: Homo sapiens, Monocyte, read-out: EC50 TNF. On the procedure: Example 60: Cot Monocyte TNFα Cell Based Assay
The cell suspension was then plated at a density of 5,000 cells/well onto black 384 well Greiner clear bottom plates. Plates were pre-spotted with test compounds and serially diluted in DMSO where 200 nL/well were delivered using the Echo 550 acoustic liquid dispenser (Labcyte®) for a final DMSO concentration of 0.5%. Plated cells were treated with compound for 1 hour at 37° C. Cells were then stimulated with 50 pg/ml of LPS (Sigma) excluding outside columns of plate used for unstimulated cell control wells. Cells were incubated for an additional 4 hours at 37° C. Cells were then spun out of the media and 5 ul of sample were taken and analyzed for total TNFα content using the TR-FRET Human TNFα detection system (CisBio). This system utilizes two labeled antibodies (cryptate and XL665) that bind to two different epitopes of the TNFα molecule and produce FRET signal proportional to the concentration of TNFα in the sample. Detection antibodies are mixed 50:50 and 5 μL were dispensed into each well. Plates were covered with clear seals and incubated at room temp overnight. […] Percent of control was calculated as follows: % Control=100×(RatioSample−Ratio0% stimulation)/(Ratio100% Stimulation−Ratio0% Stimulation) where unstimulated cells (0% stimulation) were the negative control and stimulated cells (100% stimulation) were used as the positive control.

The target of experiment [2] is T1, human Cot catalytic domain (30-397 amino acids) (Homo sapiens, UniProt P41279).
T1 construct: Purified recombinant human Cot catalytic domain (30-397 amino acids) was purchased from Cama Biosciences; purchased Cama Biosciences (so in the source)
T1 sequence (P41279 30-397): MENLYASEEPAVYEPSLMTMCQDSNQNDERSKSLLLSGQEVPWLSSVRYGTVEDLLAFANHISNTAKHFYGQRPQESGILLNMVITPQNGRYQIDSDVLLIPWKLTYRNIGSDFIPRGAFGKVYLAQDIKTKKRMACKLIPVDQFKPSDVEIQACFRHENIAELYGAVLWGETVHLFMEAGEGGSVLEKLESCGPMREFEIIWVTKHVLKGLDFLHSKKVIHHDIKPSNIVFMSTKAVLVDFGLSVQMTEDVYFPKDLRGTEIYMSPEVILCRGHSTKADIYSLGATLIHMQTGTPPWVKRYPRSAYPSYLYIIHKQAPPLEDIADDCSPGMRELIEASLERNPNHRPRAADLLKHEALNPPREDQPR
Nature of the experiment: High Throughput Cot Biochemical Assay (KinEASE TR-FRET). Particulars: read-out: IC50 HTRF. A digest of the protocol:
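Reaction of 5 nM recombinant human Cot catalytic domain (aa 30-397) with 1 μM STK3 peptide (XL665-labeled) and 400 μM ATP in 10 mM MOPS pH 7.0, 10 mM MgOAc, 1 mM DTT, 0.5 mg/mL BSA, 0.1% DMSO. Phosphopeptide detected by TR-FRET with europium anti-phospho antibody.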
(In TR-FRET formats the signal depends on donor and acceptor labels being close together.)

[3] abbreviates: LPS-stimulated human monocytes, TNFα TR-FRET.
The mark [4] stands for this setting: Cot KinEASE TR-FRET, 400 μM ATP.
Where [5] appears, read: TNFα in LPS-stimulated human monocytes.
Setting [6] is: Cot biochemical HTRF (KinEASE TR-FRET) assay.
Where [7] appears, read: Cot KinEASE TR-FRET (HTRF) biochemical assay, 400 μM ATP.

Like-named read-outs stand apart in the source and are kept apart here.

A word on the EC50: it is the concentration needed to bring the measured effect to its halfway point. As usually defined, the IC50 is the point on the concentration scale where inhibition reaches its midpoint. As for `CC(C)(C)CNc1c(C#N)cnc2c(Cl)cc(N[C@@H](c3ccc(F)cc3)c3cn(C4(c5ccccn5)CC4)nn3)cc12` [Example 991, (S)-8-chloro-6-(((4-fluorophenyl)(1-(1-(pyridin-2-yl)cyclopropyl)-1H-1,2,3-triazol-4-yl)methyl)amino)-4-(neopentylamino)quinoline-3-carbonitrile], the EC50 in experiment [1] (setting [3]) worked out at 136 nM. For the same compound, in experiment [2] (setting [4]), the IC50 was determined as 34 nM.
The matching figures for `Cc1c(C#N)cccc1[C@H](Nc1cc(Cl)c2ncc(C#N)c(NCC(C)(C)C(F)(F)F)c2c1)c1cn([C@@H](C)CF)nn1` [Example 1106, 8-chloro-6-(((S)-(3-cyano-2-methylphenyl)(1-((S)-1-fluoropropan-2-yl)-1H-1,2,3-triazol-4-yl)methyl)amino)-4-((3,3,3-trifluoro-2,2-dimethylpropyl)amino) quinoline-3-carbonitrile]: 76 nM and 5 nM.
The matching figures for `CC(C)(C)CNc1c(C#N)cnc2c(Cl)cc(N[C@H](c3cn(C4CC4)nn3)c3cccc4ccccc34)cc12` [Example 1003, (S)-8-chloro-6-(((1-cyclopropyl-1H-1,2,3-triazol-4-yl)(naphthalen-1-yl)methyl)amino)-4-(neopentylamino)quinoline-3-carbonitrile]: 227 nM and 19 nM.
With `CC(C)(O)CNc1c(C#N)cnc2c(Cl)cc(N[C@@H](c3ccccc3)c3cn(C4CCN(C(C)(C)C)CC4)nn3)cc12` [Example 555, (S)-6-(((1-(1-(tert-butyl)piperidin-4-yl)-1H-1,2,3-triazol-4-yl)(phenyl)methyl)amino)-8-chloro-4-((2-hydroxy-2-methylpropyl)amino)quinoline-3-carbonitrile], the 50% effective concentration (EC50) in experiment [1] (setting [5]) was 537 nM. For the same compound, the concentration for half-maximal inhibition (IC50) in experiment [2] (setting [6]) turned out to be 183 nM.
As to `[2H][C@@](Nc1cc(C#N)c2ncc(C#N)c(NCC(C)(C)C)c2c1)(c1cn(C2(C(F)(F)F)CC2)nn1)c1ccccc1Cl` [Example 129, (S)-6-(((2-chlorophenyl) (1-(1-(trifluoromethyl)cyclopropyl)-1H-1,2,3-triazol-4-yl)methyl-d)amino)-4-(neopentylamino) quinoline-3,8-dicarbonitrile], the EC50 in experiment [1] (setting [5]) is 344 nM. Also, the concentration for half-maximal inhibition (IC50) in experiment [2] (setting [7]) was 20 nM.
In the case of `[2H][C@](Nc1cc(Cl)c2ncc(C#N)c(N[C@H](CC)c3ccccc3)c2c1)(c1ccc(F)cc1)c1c[nH]nn1` [Example 415, 8-chloro-6-(((S)-(4-fluorophenyl)(1H-1,2,3-triazol-4-yl)methyl-d)amino)-4-(((R)-1-phenylpropyl)amino)quinoline-3-carbonitrile], in experiment [1] (setting [5]), the concentration giving a half-maximal response (EC50) came to 409 nM. For the same compound, the IC50 in experiment [2] (setting [6]) is 9 nM.
On the same counts, the results for `CC(C)(C)N1CCC(n2cc([C@@H](Nc3cc(Cl)c4ncc(C#N)c(NC5CCCCC5)c4c3)c3ccc(Cl)cc3)nn2)CC1` [Example 715, (S)-6-(((1-(1-(tert-butyl)piperidin-4-yl)-1H-1,2,3-triazol-4-yl)(4-chlorophenyl)methyl)amino)-8-chloro-4-(cyclohexylamino)quinoline-3-carbonitrile] are 2080 nM and 62 nM.
On the same counts, the results for `N#Cc1cnc2c(Cl)cc(N[C@@H](c3ccc(Cl)cc3)c3cn(C4CCN(C5COC5)CC4)nn3)cc2c1Nc1ccc(F)c(Cl)c1` [Example 802, (S)-8-chloro-4-((3-chloro-4-fluorophenyl)amino)-6-(((4-chlorophenyl)(1-(1-(oxetan-3-yl)piperidin-4-yl)-1H-1,2,3-triazol-4-yl)methyl)amino)quinoline-3-carbonitrile] are 963 nM and 78 nM.
The matching figures for `CC(C)(C)N1CCC(n2cc([C@@H](Nc3cc(Cl)c4ncc(C#N)c(NCC5CCCCC5)c4c3)c3ccccc3)nn2)CC1` [Example 602, (S)-6-(((1-(1-(tert-butyl)piperidin-4-yl)-1H-1,2,3-triazol-4-yl)(phenyl)methyl)amino)-8-chloro-4-chloro-4-((cyclohexylmethyl)amino) quinoline-3-carbonitrile]: 3050 nM and 77 nM.
As to `N#Cc1ccccc1[C@H](Nc1cc(Cl)c2ncc(C#N)c(Nc3cnc(F)c(F)c3)c2c1)c1cn(C2CC2)nn1` [Example 325, (S)-8-chloro-6-(((2-cyanophenyl)(1-cyclopropyl-1H-1,2,3-triazol-4-yl)methyl)amino)-4-((5,6-difluoropyridin-3-yl)amino)quinoline-3-carbonitrile], the concentration for a half-maximal effect (EC50) in experiment [1] (setting [5]) was 356 nM. Further, in experiment [2] (setting [7]), the IC50 was 8 nM.
On to `CN(C)Cc1ccccc1[C@H](Nc1cc(Cl)c2ncc(C#N)c(Nc3ccc(F)c(Cl)c3)c2c1)c1cn(C2CCN(C(C)(C)C)CC2)nn1` [Example 720, (S)-6-(((1-(1-(tert-butyl)piperidin-4-yl)-1H-1,2,3-triazol-4-yl)(2-((dimethylamino)methyl)phenyl)methyl)amino)-8-chloro-4-((3-chloro-4-fluorophenyl)amino)quinoline-3-carbonitrile], for which the EC50 in experiment [1] (setting [5]) turned out to be 3990 nM. Further, the IC50 in experiment [2] (setting [6]) is 72 nM.
Regarding `[2H][C@@](Nc1cc(Cl)c2ncc(C#N)c(NCC(C)(C)C)c2c1)(c1cn(C2CC2)nn1)c1c(F)cccc1Cl` [Example 101, (S)-8-chloro-6-(((2-chloro-6-fluorophenyl) (1-cyclopropyl-1H-1,2,3-triazol-4-yl)methyl-d)amino)-4-(neopentylamino) quinoline-3-carbonitrile], the EC50 in experiment [1] (setting [5]) was greater than 1000 nM. The IC50 in experiment [2] (setting [7]) was determined as 83 nM.
For the compound `N#Cc1cnc2c(Cl)cc(N[C@@H](c3ccc(F)cc3)c3c[nH]nn3)cc2c1NCC1CCCCO1` (stereo partly drawn) [Example 436, 8-chloro-6-(((S)-(4-fluorophenyl)(1H-1,2,3-triazol-4-yl)methyl)amino)-4-(((tetrahydro-2H-pyran-2-yl)methyl)amino)quinoline-3-carbonitrile], in experiment [1] (setting [5]), the EC50 is 3030 nM. Besides, the 50% inhibitory concentration (IC50) in experiment [2] (setting [6]) worked out at 1360 nM.
Consider `N#Cc1cnc2c(Cl)cc(N[C@@H](c3ccc(F)cc3)c3c[nH]nn3)cc2c1Nc1ccc(F)c(Cl)c1` [Example 819, (S)-8-chloro-4-((3-chloro-4-fluorophenyl)amino)-6-(((4-fluorophenyl)(1H-1,2,3-triazol-4-yl)methyl)amino)quinoline-3-carbonitrile], for which the concentration for a half-maximal effect (EC50) in experiment [1] (setting [5]) was 426 nM. The IC50 in experiment [2] (setting [6]) is 22 nM.
Take `CC(C)(C)CNc1c(C#N)cnc2c(F)cc(N[C@H](c3cn(C4(C#N)CC4)nn3)c3ccccc3Cl)cc12` [Example 1000, (S)-6-(((2-chlorophenyl)(1-(1-cyanocyclopropyl)-1H-1,2,3-triazol-4-yl)methyl)amino)-8-fluoro-4-(neopentylamino)quinoline-3-carbonitrile]: the 50% effective concentration (EC50) in experiment [1] (setting [3]) was found to be 177 nM. In addition, the IC50 in experiment [2] (setting [4]) is 58 nM.
As for `CN(C)C(=O)c1cccc([C@H](Nc2cc(Cl)c3ncc(C#N)c(Nc4cccc(Cl)c4F)c3c2)c2c[nH]nn2)c1` [Example 606, (S)-3-(((8-chloro-4-((3-chloro-2-fluorophenyl)amino)-3-cyanoquinolin-6-yl)amino)(1H-1,2,3-triazol-4-yl)methyl)-N,N-dimethylbenzamide], the concentration giving a half-maximal response (EC50) in experiment [1] (setting [5]) came to 348 nM. Also, the half-inhibitory concentration (IC50) in experiment [2] (setting [6]) was found to be 2 nM.
As for `[2H][C@](Nc1cc(Cl)c2ncc(C#N)c(NCC3(C)CCC3)c2c1)(c1cccc(C#N)c1)c1cn(C2CC2)nn1` [Example 276, (S)-8-chloro-6-(((3-cyanophenyl)(1-cyclopropyl-1H-1,2,3-triazol-4-yl)methyl-d)amino)-4-(((1-methylcyclobutyl)methyl)amino) quinoline-3-carbonitrile], the concentration for a half-maximal effect (EC50) in experiment [1] (setting [5]) is 166 nM. Also, the IC50 in experiment [2] (setting [7]) was 3 nM.
Turning to `[2H]C(Nc1cc(C#N)c2ncc(C#N)c(NCC(C)(C)C)c2c1)(c1cn(C2(C(F)F)CC2)nn1)c1ccccc1Cl` (centres unmarked) [Example 1111, 6-(((2-chlorophenyl)(1-(1-(difluoromethyl)cyclopropyl)-1H-1,2,3-triazol-4-yl)methyl-d)amino)-4-(neopentylamino)-quinoline-3,8-dicarbonitrile], the half-maximal effective concentration (EC50) in experiment [1] (setting [3]) was 98 nM. In experiment [2] (setting [4]), the IC50 came to 13 nM.
In the case of `[2H][C@](Nc1cc(Cl)c2ncc(C#N)c(N[C@H](COC)c3ccccc3)c2c1)(c1ccc(F)cc1)c1cn(C2CC2)nn1` [Example 181, 8-chloro-6-(((1-cyclopropyl-1H-1,2,3-triazol-4-yl)(4-fluorophenyl)methyl-d)amino)-4-(((S)-2-methoxy-1-phenylethyl)amino) quinoline-3-carbonitrile], in experiment [1] (setting [5]), the EC50 is 348 nM. Further, the 50% inhibitory concentration (IC50) in experiment [2] (setting [7]) was determined as 28 nM.
